Columns and labels:
caspase-3 = assay: Western blot for cleaved caspase-3 in JJN-3 cells; assay type: cell-based, human; settings: JJN-3, 10 μM, 24 or 48 h
Protocol: JJN-3 cells were cultured for 24 or 48 hours with a control peptide (penetratin) or P7-A4-Pen, both at 10 μM. Cells were then lysed and lysates analysed by Western blot for cleaved caspase-3. Presence of cleaved (i.e. activated) caspase-3 is an indicator of apoptotic pathway activation. Cleaved caspase 3 was detected at high levels in the cells treated with P7-A4-Pen for 24 or 48 hours, and only at much lower levels in the cells treated with the control peptide. β-tubulin was detected as a loading control.
To investigate the mechanism of cytotoxicity mediated by the anti-proliferative peptides of the invention, the effect of the peptide P7-A4-Pen on caspase-3 activation in JJN-3 multiple myeloma cells was investigated. Caspase-3 is a pro-apoptotic caspase which is activated by cleavage by upstream caspases 8, 9 and 10 in response to cell death stimuli. Activated, cleaved caspase-3 cleaves and activates caspases 6 and 7, which induce apoptosis. JJN-3 multiple myeloma cells were incubated with 10 μM P7-A4-Pen or Penetratin control for 24 or 48 hours, lysed and analysed by Western blot to investigate caspase-3 activation (by blotting cleaved caspase-3).

S. aureus particles = assay: Whole blood assay, S. aureus particle stimulation; assay type: cell-based, human; settings: 20 μM, 4 h
Protocol: Whole blood samples from healthy donors were pre-treated with 20 μM peptides for 1 h then stimulated with TLR ligands for 4 h before plasma collection. Results are for at least 6 donors. The Wilcoxon matched-pairs signed rank test was used for statistical analysis between 2 groups in Prizm 8.2.1. In each graph, circles indicate whole blood pre-treated with water, squares indicate blood pre-treated with control peptide (average for treatment with Pen and C3-Pen), and triangles indicate pre-treatment with P7-Pen.
To evaluate the effect of peptides in an ex vivo system, a human whole blood model was used. Peripheral venous blood was drawn from 6 healthy donors into sterile polypropylene tubes (Thermo Scientific™ Nunc™ Biobanking and Cell Culture Cryogenic Tubes) containing the anti-coagulant Lepirudin (Refludan®; Celgene). Peptide solutions were made by diluting peptide stocks in DPBS (Dulbecco's Phosphate Buffered Saline with MgCl2 and CaCl2; Sigma-Aldrich) to obtain a final concentration of 140 μM. Peptide solution or DPBS was distributed in equal volume (50 μL) to 1.8 mL sterile polypropylene tubes (Thermo Scientific™Nunc™ Biobanking and Cell Culture Cryogenic Tubes). 250 μL whole blood was then added to the 1.8 mL tubes containing peptide solution or DPBS, and incubated at 37° C. under constant rotation for 1 h (concentration of peptides for pre-incubation: 23.3 μM). […]

THP-1 cells = assay: LDH cytotoxicity assay in THP-1 cells; settings: 1 h pre-treatment
Protocol: For every assay, separate wells were seeded for the required controls (Spontaneous LDH Release Controls and Maximum LDH Release Control) with the same amount of cells as used for peptide treatments. All supernatants were analysed in triplicate with the average value of technical replicates taken into calculations.
THP-1 cells were pre-treated with increasing concentrations of P7-Arg11 and control peptide Arg11 for 1 h (FIG. 3).

Substance: Ac-ITVAASVTLTGRQIKIWFQNRRMKWKK-NH2 [Peptide P7-A4-Pen]
- caspase-3 cleavage (caspase-3): strongly stimulates

Substance: Ac-ITVYASVTLTGRQIKIWFQNRRMKWKK-NH2 [Peptide P7-Pen]
- S. aureus-mediated IFNβ secretion (S. aureus particles): significantly downregulated
- S. aureus-mediated TNF, IL-6 and IL-1β pro-inflammatory cytokine secretion (S. aureus particles): significantly decreased

Substance: Ac-ITVYASVTLTGRRRRRRRRRRR-NH2 [Peptide P7-Arg11]
- toxicity (LDH assay) (THP-1 cells; 5 μM and 10 μM): essentially non-toxic
- toxicity (LDH assay) (THP-1 cells; 20 μM): increased toxicity

Reference: patent US20230220047A1, “PEPTIDES FOR TREATMENT OF SEPSIS AND CANCER” (NORWEGIAN UNIVERSITY OF SCIENCE AND TECHNOLOGY (NTNU), priority 2020, published 2023)
